# Legend:
# [1] = tested on: Human ovarian cancer cells (NAR cells); test: Apoptosis by FACS using PI/Annexin after siPLK1-LNPs; assay type: cell-based; conditions: 48 hr; for Apoptosis induced by siPLK1-LNPs: PI/Annexin FACS
# Method: (§1) Supt1 or NAR or OVCAR cells were placed in tissue culture 12-wells plates at a density of 1×10^5 cells with 1 mL of full medium. LNPs containing different siRNAs (siPLK1 or siCD45 or siLUC) were added to the wells and the concentration was mentioned in figures. Cells were isolated at different time intervals mentioned in the figures and analyzed by either flow cytometry (for siCD45 knockdown), or qPCR for analysis of PLK1 silencing. Apoptosis assay using PI/Annexin was analyzed by flow cytometry in case of siPLK1 induced cell death.
# Human ovarian cancer cells (NAR cells) were treated with lipid1/siPLK1 nanoparticles for 48 hr at different siRNA concentrations (0.2 μM and 0.1 μM). Apoptotic cells were analyzed by FACS using PI/Annexin. […] Percentage of early apoptotic cells was higher in cells treated with siPLK1-LNPs at 0.2 uM dose of siPLK1.
# Human ovarian cancer cells (NAR cells) were treated with either lipid10 or lipid 11/siPLK1 nanoparticles for 48 hr at different siRNA concentrations (0.1 μM and 0.05 μM). siLUC-LNPs used as a negative control. Apoptotic cells were analyzed by FACS using PI/Annexin.
# [2] = LNP size distribution, PDI and ζ potential by dynamic light scattering; assay type: physicochemical; conditions: LNP-siRNA formulations; for PDI / Size (d · nm): DLS
# Method: LNPs were prepared by using microfluidic micro mixture (Precision NanoSystems, Vancouver, BC, Canada) as described by Cohen et. al. One volume of lipid mixtures (cationic lipid, DSPC, Chol, DMG-PEG and DSPE-PEG Mal at 50:10:38:1.5:0.5 mole ratio, […] total lipid concentration) in ethanol and three volumes of siRNA (1:16 w/w siRNA to lipid) containing acetate buffer solutions were injected through the micro mixer at a combined flow rate of 2 mL/minute (0.5 mL/min for ethanol and 1.5 mL/min for aqueous buffer). For labeled LNPs, 10% of Alexa-647 labeled siRNA were incorporated. For Cy5 labeled particles, 10% Cy5 labeled non-targeted siRNA was used. The resultant mixture was dialyzed against PBS (pH 7.4) for 16 h to remove ethanol.
# LNPs size distribution and ζ potential were determined by dynamic light scattering using a Malvern nano ZS ζ-sizer (Malvern instruments, UK). For size measurements, LNPs were diluted 1:20 in PBS. […] For ζ potential measurements, LNPs were diluted 1:200 in DDW. In some cases, as indicated, size and zeta potential measurements were performed in water.
# [3] = tested on: Drug resistant human ovarian carcinoma cells (NAR); test: PLK-1 expression by qPCR after LNP-siPLK-1 or LNP-siLuc; assay type: cell-based; conditions: 72 hrs
# Method: (§2) The mRNA levels of pololike kinase 1 (PLK1 gene) in cells was quantified by real-time PCR, forty eight or Seventy-two hours post-transfection. Total RNA was isolated using the E-Z RNA purification kit (Biological industries, Beit Haemek, Israel), and 1 μg of RNA from each sample was reverse transcribed into cDNA using the High Capacity cDNA Reverse Transcription Kit (Applied Biosystems, Foster City, CA), Quantification of cDNA (5 ng total) was performed on the step one Sequence Detection System (Applied Biosystems, Foster City, CA) using syber green (Applied Biosystems). GAPDH was chosen as a housekeeping gene.
# as §1
# Drug resistant human ovarian carcinoma cells (NAR) were treated with either LNP-siPLK-1 or LNP-siLuc nanoparticles Lipid 1 LNPs (A); Lipid 10&11 LNPs (B) for 72 hrs and PLK-1 expression was measured by qPCR as described in Example 1.
# [4] = tested on: HEK 293 cells; test: In vitro expression of mKATE-pDNA, flow cytometry; assay type: cell-based; conditions: 72 hr; for mKATE expression: HEK 293, 0.6 nM pDNA; for Dose dependence of mKATE expression: HEK 293, different amount pDNA
# Method: In vitro expression of pDNA in HEK 293 cells: HEK cells were treated with LNPs composed of either lipid1 or lipid 10 encapsulated with mKATE-pDNA at the concentration of 0.6 nM pDNA. After 72 hr, mKATE expression was analyzed by flow cytometry.
# Dose dependent expression of pDNA in HEK 293 cells: HEK cells were treated with LNPs composed of either lipid1 or lipid 10 encapsulated with mKATE-pDNA at different amount pDNA. After 72 hr, mKATE expression was analyzed by flow cytometry.
# [5] = tested on: Human multiple myeloma suspension cells (MM1); test: Cell viability after PLK1 silencing, XTT assay; assay type: cell-based; conditions: MM1, 48 hrs
# Method: Human multiple myeloma suspension cells (MM1) were incubated with siPLK1-LNPs or siCtl-LNPs composed of either lipid 38 or 55 at different concentrations for 48 hrs. Cell viability affected by PLK1 down regulation was measured by XTT assay.
# [6] = tested on: Human multiple myeloma suspension cells (U266); test: PLK1 expression by qPCR after siPLK1-LNPs; assay type: cell-based; conditions: U266, 48 hrs, normalized to LNPs-ctl siRNA treated cells
# Method: as §2
# Human multiple myeloma suspension cells (U266) were incubated with LNPs containing siPLK1 at different concentrations for 48 hrs. PLK1 expression was measured by qPCR. PLK1-mRNA levels were normalized to LNPs-ctl siRNA treated cells.
# [7] = tested on: Human B-cell lymphoma suspension cells (RPMI-8226); test: Cell viability after PLK1 silencing, XTT assay; assay type: cell-based; conditions: RPMI-8226, 48 hrs
# Method: Human B-cell lymphoma suspension cells (RPMI-8226) were incubated with siPLK1-LNPs or siCtl-LNPs composed of either lipid 38 or 55 at different concentrations for 48 hrs. Cell viability affected by PLK1 down regulation was measured by XTT assay.
# [8] = tested on: Human colon carcinoma cells (HCT116); test: Toxicity of LNPs with ctl siRNA, XTT cell viability; assay type: cell-based; conditions: 72 hrs
# Method: Human colon carcinoma cells (HCT116) were incubated with LNPs with ctl siRNA (see methods) for 72 hrs. The cell viability was measured by XTT assay. Toxicity of LNPs composed of either lipid 38 or lipid 55 is compared with gold standard LNPs composed of Dlin-MC3-DMA.
# [9] = tested on: Human multiple myeloma suspension cells (U266); test: Cell viability after PLK1 silencing, XTT assay; assay type: cell-based; conditions: U266, 48 hrs
# Method: Human multiple myeloma suspension cells (U266) were incubated with siPLK1-LNPs or siCtl-LNPs composed of either lipid 38 or 55 at different concentrations for 48 hrs. Cell viability affected by PLK1 down regulation was measured by XTT assay.
# [10] = tested on: Spheroids of drug resistant human ovarian carcinoma cells (NAR); test: PLK-1 expression by qPCR in 3D spheroids; assay type: cell-based; conditions: 72 hr
# Method: as §2
# Spheroids of drug resistant human ovarian carcinoma cells (NAR) were treated with LNPs composed of lipid1 and with either siPLK-1 or siLuc s for 72 hr and PLK-1 expression was measured by qPCR. Spheroids are 3D cultures of tumor cells mimicking in vivo tumors.
# [11] = tested on: Human ovarian carcinoma cells (OVCAR 8); test: PLK-1 expression by qPCR after LNP-siPLK1 or siLUC; assay type: cell-based; conditions: OVCAR 8, 72 hr
# Method: as §2, §1
# Human ovarian carcinoma cells (OVCAR 8) were treated with lipid 1 containing LNPs with either siPLK1 or siLUC for 72 hr and PLK-1 expression was measured by qPCR.
# [12] = tested on: Human T cells SupT1; test: In vitro CD45 gene silencing by LNP-siCD45, flow cytometry; assay type: cell-based; conditions: LNP with siCD45, 48 hrs or 72 hrs, 0.4, 0.2, 0.1 μM siRNA
# Method: as §1
# FIG. 1 depicts in vitro gene silencing effect lipid 1: Human T cells SupT1 were treated with lipid nanoparticle (LNP) comprising of cationic lipid 1 encapsulated siCD45 for 48 hrs (A) or 72 hrs (B) at different siRNA doses (0.4 μM, 0.2 μM, 0.1 μM).
Compound,Zeta-potential (mV) [2],PDI [2],Size (d · nm) [2],also measured
CCCCC/C=C\C/C=C\CCCCCCCCN(CCCCCCCC/C=C\C/C=C\CCCCC)CCOC(=O)CCCN1CCN(C)CC1 [Lipid 55],−1.28 mV,0.17,97.0 nm,"Cell viability, siCtl-LNPs [5]: no effect on the cell viability; Cell viability, siPLK1-LNPs [5]: dose dependent effect on multiple myeloma cancer cell viability; PLK1 expression, siPLK1-LNPs [6]: efficiently down regulate; Cell viability, siCtl-LNPs [7]: no effect on the cell viability; Cell viability, siPLK1-LNPs [7]: dose dependent effect on B-cell lymphoma cancer cell viability; Toxicity of LNPs (cell viability) [8]: less toxic than LNPs composed of Dlin-MC3-DMA; Cell viability, siCtl-LNPs [9]: no effect on the cell viability; Cell viability, siPLK1-LNPs [9]: more effect on cell viability compared to Dlin-MC3-DMA LNPs"
"CCCCC/C=C\C/C=C\CCCCCCCCC(CCCCCCCC/C=C\C/C=C\CCCCC)OC(=O)CCCN(C)C [Dlin-MC3-DMA, reference compound]",−1 mV,0.18,44.5 nm,mKATE expression [4]: did not show any effect on mKATE expression
"CCCCC/C=C\C/C=C\CCCCCCCCNN(CCCCCCCC/C=C\C/C=C\CCCCC)CCN(C)C [Lipid 1, 2-(1,2-di((9Z,12Z)-octadeca-9,12-dien-1-yl)hydrazinyl)-N,N-dimethylethan-1-amine]",18.5 mV,0.14,45.1 nm,"PLK-1 expression, siPLK1-LNPs [10]: significantly downregulating PLK1 gene compared to siLUC-LNPs; PLK-1 expression, siPLK1-LNPs [11]: efficiently downregulating PLK1 gene compared to dlin-mc3-dma containing LNPs; Percentage of early apoptotic cells ([1]; 0.2 uM dose of siPLK1): higher; Apoptosis induced by siPLK1-LNPs [1]: inducing apoptosis in cancer cell; Effect on cell cycle of siLUC-LNPs ([1]; control siRNA): no effect on cell cycle; CD45 gene down-regulation [12]: down-regulate CD45 gene in hard to transfect T cells; PLK-1 expression, LNP-siLuc control siRNA [3]: did not affect plk1 expression; PLK-1 expression, LNP-siPLK-1 [3]: downregulating the proto-oncogene PLK1 efficiently; mKATE expression [4]: mKATE expression was observed; Dose dependence of mKATE expression [4]: did not show any dose dependent expression"
CCCCC/C=C\C/C=C\CCCCCCCCN(CCCCCCCC/C=C\C/C=C\CCCCC)NC(=O)CCCN1CCN(C)CC1 [Lipid 21],−2.8 mV,0.16,67.7 nm,–
"CCCCC/C=C\C/C=C\CCCCCCCCN(CCCCCCCC/C=C\C/C=C\CCCCC)NC(=O)[C@@H](N)CCCCN(C)C [Lipid 11, 2-amino-6-(dimethylamino)-N′,N′-di((9Z,12Z)-octadeca-9,12-dien-1-yl)hexanehydrazide]",20.4 mV,0.10,108.5 nm,"Apoptosis induced by siPLK1-LNPs [1]: efficiently downregulating PLK1 gene followed by inducing apoptosis in NAR cells; PLK-1 expression, LNP-siLuc control siRNA [3]: no effect on plk1 expression; PLK-1 expression, LNP-siPLK-1 [3]: down regulating plk1 gene efficiently at different doses"
CCCCC/C=C\C/C=C\CCCCCCCCNN(CCCCCCCC/C=C\C/C=C\CCCCC)CCCCN(C)C [Lipid 2],13.9 mV,0.06,56.3 nm,–

# Now from value to compound, other results behind:
Zeta-potential (mV) [2],PDI [2],Size (d · nm) [2],Compound,also measured
18.5 mV,0.08,50.5 nm,CCCCC/C=C\C/C=C\CCCCCCCCN(CCCCCCCC/C=C\C/C=C\CCCCC)NC(=O)CCCN(C)C [Lipid 10],"Apoptosis induced by siPLK1-LNPs [1]: efficiently downregulating PLK1 gene followed by inducing apoptosis in NAR cells; PLK-1 expression, LNP-siLuc control siRNA [3]: no effect on plk1 expression; PLK-1 expression, LNP-siPLK-1 [3]: down regulating plk1 gene efficiently at different doses; mKATE expression [4]: mKATE expression was observed; Dose dependence of mKATE expression [4]: dose dependent expression of mKATE"
−3.6 mV,0.09,44.3 nm,CCCCC/C=C\C/C=C\CCCCCCCCN(CCCCCCCC/C=C\C/C=C\CCCCC)OC(=O)CCCN(C)C [Lipid 14],–
10.1 mV,0.11,52.5 nm,CCCCC/C=C\C/C=C\CCCCCCCCN(CCCCCCCC/C=C\C/C=C\CCCCC)NCCN(C)C [Lipid 15],–
−13.6 mV,0.04,75.1 nm,CCCCC/C=C\C/C=C\CCCCCCCCN(CCCCCCCC/C=C\C/C=C\CCCCC)OC(=O)CN(C)C [Lipid 9],–
−10.8 mV,0.15,46.0 nm,CCCCC/C=C\C/C=C\CCCCCCCCN(CCCCCCCC/C=C\C/C=C\CCCCC)OC(=O)Cc1c[nH]cn1 [Lipid 33],–
